# Test results as given in patent US9718819B2 (Merck Sharp & Dohme Corp., priority 2012, dated 2017).
# pIC50: −log10 of the molar value.
# Target: HIV-1 RT wild-type enzyme (Human immunodeficiency virus type 1 group M subtype B (isolate HXB2) (HIV-1), UniProt P04585)
# Experiment: HIV-1 reverse transcriptase inhibitory activity (RT polymerase assay)
# Format: biochemical
# Details: not given
# Summary of the method: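 Biotinylated DNA primer annealed to HCV-derived RNA template (16.6 nM final hybrid), with 2 μM dATP/dGTP/dCTP and 66.6 nM Ru-dUTP, after 30 min compound–enzyme preincubation at room temperature; polymerization 90 min at 37 °C, EDTA quench. Product captured on avidin plates, electrochemiluminescence read; IC50 by four-parameter logistic fit versus DMSO and 1 μM efavirenz controls.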
row,Structure (SMILES),pIC50
1,"N#Cc1cc(Cl)cc(Oc2c(C(F)(F)F)ncn(Cc3cc(CO)c(=O)[nH]n3)c2=O)c1 [Example 12, 3-chloro-5-((1-((5-(hydroxymethyl)-6-oxo-1,6-dihydropyridazin-3-yl)methyl)-6-oxo-4-(trifluoromethyl)-1,6-dihydropyrimidin-5-yl)oxy)benzonitrile]",7.49

# Same assay, conditions: HIV-1 RT wild-type enzyme 83 pM; RNA-dependent DNA polymerase activity; read-out: IC50
row,Structure (SMILES),pIC50
1,"N#Cc1cc(Cl)cc(Oc2c(C(F)(F)F)ncn(Cc3n[nH]c(=O)c4cccnc34)c2=O)c1 [Example 1, 3-chloro-5-((6-oxo-1-((5-oxo-5,6-dihydropyrido[2,3-d]pyridazin-8-yl)methyl)-4-(trifluoromethyl)-1,6-dihydropyrimidin-5-yl)oxy)benzonitrile]",6.72
2,"N#Cc1cc(Cl)cc(Oc2c(C(F)(F)F)ncn(Cc3cnc(-c4ccnc5[nH]ccc45)[nH]c3=O)c2=O)c1 [Example 158, 3-chloro-5-((6-oxo-1-((6-oxo-2-(1H-pyrrolo[2,3-b]pyridin-4-yl)-1,6-dihydropyrimidin-5-yl)methyl)-4-(trifluoromethyl)-1,6-dihydropyrimidin-5-yl)oxy)benzonitrile]",7.96
3,"CC(F)(F)c1cc(Cn2cnc(C(C)(F)F)c(Oc3cc(Cl)cc(C#N)c3)c2=O)c(=O)[nH]n1 [Example 180, 3-chloro-5-((4-(1,1-difluoroethyl)-1-((6-(1,1-difluoroethyl)-3-oxo-2,3-dihydropyridazin-4-yl)methyl)-6-oxo-1,6-dihydropyrimidin-5-yl)oxy)benzonitrile]",8.30
4,"N#Cc1cc(Cl)cc(Oc2c(C(F)(F)F)ncn(Cc3cc(-c4cccc(Cl)c4F)c(=O)[nH]n3)c2=O)c1 [Example 43, 3-chloro-5-((1-((5-(3-chloro-2-fluorophenyl)-6-oxo-1,6-dihydropyridazin-3-yl)methyl)-6-oxo-4-(trifluoromethyl)-1,6-dihydropyrimidin-5-yl)oxy)benzonitrile]",8.05
5,"N#Cc1cc(Cl)cc(Oc2c(C(F)(F)F)ncn(Cc3cnc(O)cn3)c2=O)c1 [Example 2, 3-chloro-5-((1-((5-hydroxypyrazin-2-yl)methyl)-6-oxo-4-(trifluoromethyl)-1,6-dihydropyrimidin-5-yl)oxy)benzonitrile]",6.93
6,"N#Cc1cc(Cl)cc(Oc2c(C(F)(F)F)ncn(Cc3cnc[nH]c3=O)c2=O)c1 [Example 136, 3-chloro-5-((6-oxo-1-((6-oxo-1,6-dihydropyrimidin-5-yl)methyl)-4-(trifluoromethyl)-1,6-dihydropyrimidin-5-yl)oxy)benzonitrile]",8.22
7,"Cc1cc(F)cc(-c2cc(Cn3cnc(C(F)(F)F)c(Oc4cc(Cl)cc(C#N)c4)c3=O)n[nH]c2=O)c1 [Example 60, 3-chloro-5-((1-((5-(3-fluoro-5-methylphenyl)-6-oxo-1,6-dihydropyridazin-3-yl)methyl)-6-oxo-4-(trifluoromethyl)-1,6-dihydropyrimidin-5-yl)oxy)benzonitrile]",8.15
8,"N#Cc1cc(Cl)cc(Oc2c(C(F)(F)F)ncn(Cc3cnc(-c4ccc(Cl)cc4)[nH]c3=O)c2=O)c1 [Example 151, 3-chloro-5-((1-((2-(4-chlorophenyl)-6-oxo-1,6-dihydropyrimidin-5-yl)methyl)-6-oxo-4-(trifluoromethyl)-1,6-dihydropyrimidin-5-yl)oxy)benzonitrile]",7.55
9,"N#Cc1cc(Oc2c(C(F)(F)F)ncn(Cc3ccc(=O)[nH]n3)c2=O)cc(OC(F)F)c1 [Example 163, 3-(difluoromethoxy)-5-(6-oxo-1-((6-oxo-1,6-dihydropyridazin-3-yl)methyl)-4-(trifluoromethyl)-1,6-dihydropyrimidin-5-yloxy)benzonitrile]",7.66
10,"N#Cc1cc(Cl)cc(Oc2c(C(F)(F)F)ncn(Cc3cc(-c4ccc(OC(F)F)cc4)n[nH]c3=O)c2=O)c1 [Example 115, 3-chloro-5-((1-((6-(4-(difluoromethoxy)phenyl)-3-oxo-2,3-dihydropyridazin-4-yl)methyl)-6-oxo-4-(trifluoromethyl)-1,6-dihydropyrimidin-5-yl)oxy)benzonitrile]",8.15
11,"COc1cccc(-c2cc(Cn3cnc(C(F)(F)F)c(Oc4cc(Cl)cc(C#N)c4)c3=O)n[nH]c2=O)c1F [Example 44, 3-chloro-5-((1-((5-(2-fluoro-3-methoxyphenyl)-6-oxo-1,6-dihydropyridazin-3-yl)methyl)-6-oxo-4-(trifluoromethyl)-1,6-dihydropyrimidin-5-yl)oxy)benzonitrile]",8.40
12,"Cc1ccc(-c2cc(Cn3cnc(C(F)(F)F)c(Oc4cc(Cl)cc(C#N)c4)c3=O)n[nH]c2=O)cn1 [Example 83, 3-chloro-5-((1-((5-(6-methylpyridin-3-yl)-6-oxo-1,6-dihydropyridazin-3-yl)methyl)-6-oxo-4-(trifluoromethyl)-1,6-dihydropyrimidin-5-yl)oxy)benzonitrile]",7.85
13,"Cc1c(C#N)cc(F)cc1Oc1c(C(F)(F)F)ncn(Cc2ccc(=O)[nH]n2)c1=O [Example 164, 5-fluoro-2-methyl-3-(6-oxo-1-((6-oxo-1,6-dihydropyridazin-3-yl)methyl)-4-(trifluoromethyl)-1,6-dihydropyrimidin-5-yloxy)benzonitrile]",8.15
14,Cn1nc(Cn2cnc(C(F)(F)F)c(Oc3cc(Cl)cc(C#N)c3)c2=O)cc(Br)c1=O [Example 23],7.42
15,"N#Cc1cc(Cl)cc(Oc2c(C(F)(F)F)ncn(Cc3cc(-c4ccnc5[nH]ccc45)n[nH]c3=O)c2=O)c1 [Example 126, 3-chloro-5-((6-oxo-1-((3-oxo-6-(1H-pyrrolo[2,3-b]pyridin-4-yl)-2,3-dihydropyridazin-4-yl)methyl)-4-(trifluoromethyl)-1,6-dihydropyrimidin-5-yl)oxy)benzonitrile]",8.40
16,"N#Cc1cc(Cl)cc(Oc2c(C(F)(F)F)ncn(Cc3cnc(-c4ccc(OC(F)F)cc4)[nH]c3=O)c2=O)c1 [Example 159, 3-chloro-5-((1-((2-(4-(difluoromethoxy)phenyl)-6-oxo-1,6-dihydropyrimidin-5-yl)methyl)-6-oxo-4-(trifluoromethyl)-1,6-dihydropyrimidin-5-yl)oxy)benzonitrile]",7.77
17,"N#Cc1cc(Cl)cc(Oc2c(C(F)(F)F)ncn(Cc3cnc(N)[nH]c3=O)c2=O)c1 [Example 143, 3-((1-((2-amino-6-oxo-1,6-dihydropyrimidin-5-yl)methyl)-6-oxo-4-(trifluoromethyl)-1,6-dihydropyrimidin-5-yl)oxy)-5-chlorobenzonitrile]",8.15
18,COc1ccc(-c2cc(Cn3cnc(C(F)(F)F)c(Oc4cc(Cl)cc(C#N)c4)c3=O)n[nH]c2=O)cn1 [Example 74],7.77
19,"CC(F)(F)c1ncn(Cc2cc(C(F)F)n[nH]c2=O)c(=O)c1Oc1cc(Cl)cc(C#N)c1 [Example 175, 3-chloro-5-((4-(1,1-difluoroethyl)-1-((6-(difluoromethyl)-3-oxo-2,3-dihydropyridazin-4-yl)methyl)-6-oxo-1,6-dihydropyrimidin-5-yl)oxy)benzonitrile]",8.52
20,"N#Cc1cc(Cl)cc(Oc2c(C(F)(F)F)ncn(Cc3cc(-c4cc(F)c(F)c(F)c4)c(=O)[nH]n3)c2=O)c1 [Example 55, 3-chloro-5-((6-oxo-1-((6-oxo-5-(3,4,5-trifluorophenyl)-1,6-dihydropyridazin-3-yl)methyl)-4-(trifluoromethyl)-1,6-dihydropyrimidin-5-yl)oxy)benzonitrile]",7.96
21,"CNc1ncc(Cn2cnc(C(F)(F)F)c(Oc3cc(Cl)cc(C#N)c3)c2=O)c(OC)n1 [Example 138, 3-chloro-5-((1-((4-methoxy-2-(methylamino)pyrimidin-5-yl)methyl)-6-oxo-4-(trifluoromethyl)-1,6-dihydropyrimidin-5-yl)oxy)benzonitrile]",7.96
22,"N#Cc1cc(Cl)cc(Oc2c(C(F)F)ncn(Cc3ccc(=O)[nH]n3)c2=O)c1 [Example 160, 3-chloro-5-((4-(difluoromethyl)-6-oxo-1-((6-oxo-1,6-dihydropyridazin-3-yl)methyl)-1,6-dihydropyrimidin-5-yl)oxy)benzonitrile]",7.59
23,"Cc1ccc(-c2cc(Cn3cnc(C(F)(F)F)c(Oc4cc(Cl)cc(C#N)c4)c3=O)n[nH]c2=O)cc1F [Example 58, 3-chloro-5-((1-((5-(3-fluoro-4-methylphenyl)-6-oxo-1,6-dihydropyridazin-3-yl)methyl)-6-oxo-4-(trifluoromethyl)-1,6-dihydropyrimidin-5-yl)oxy)benzonitrile]",8.40
24,"Cn1cc(-c2cc(Cn3cnc(C(F)(F)F)c(Oc4cc(Cl)cc(C#N)c4)c3=O)c(=O)[nH]n2)cn1 [Example 111, 3-chloro-5-((1-((6-(1-methyl-1H-pyrazol-4-yl)-3-oxo-2,3-dihydropyridazin-4-yl)methyl)-6-oxo-4-(trifluoromethyl)-1,6-dihydropyrimidin-5-yl)oxy)benzonitrile]",8.00
25,"N#Cc1cc(Cl)cc(Oc2c(C(F)(F)F)ncn(Cc3cc(-c4cccc(F)c4Cl)c(=O)[nH]n3)c2=O)c1 [Example 41, 3-chloro-5-((1-((5-(2-chloro-3-fluorophenyl)-6-oxo-1,6-dihydropyridazin-3-yl)methyl)-6-oxo-4-(trifluoromethyl)-1,6-dihydropyrimidin-5-yl)oxy)benzonitrile]",7.23
26,"N#Cc1ccc(-c2cc(Cn3cnc(C(F)(F)F)c(Oc4cc(Cl)cc(C#N)c4)c3=O)n[nH]c2=O)cc1 [Example 75, 3-chloro-5-((1-((5-(4-cyanophenyl)-6-oxo-1,6-dihydropyridazin-3-yl)methyl)-6-oxo-4-(trifluoromethyl)-1,6-dihydropyrimidin-5-yl)oxy)benzonitrile]",7.70
27,"Cc1ccc(-c2cc(Cn3cnc(C(F)(F)F)c(Oc4cc(Cl)cc(C#N)c4)c3=O)n[nH]c2=O)cc1 [Example 31, 3-chloro-5-((6-oxo-1-((6-oxo-5-(p-tolyl)-1,6-dihydropyridazin-3-yl)methyl)-4-(trifluoromethyl)-1,6-dihydropyrimidin-5-yl)oxy)benzonitrile]",8.30
